{"source": "patent US20210130362A1", "about": "“MEDICAL USE OF COMPOUND III” (Boehringer Ingelheim International GmbH, priority 2017, published 2021)", "key": {"[1]": {"assay": "Intrinsic dissolution rate of compound III", "format": "physicochemical", "conditions": "physiologically relevant pH range above pH 4"}, "[2]": {"test_system": "patients with schizophrenia on stable antipsychotic treatment", "assay": "Multinational, randomised, double-blind, placebo-controlled, parallel group clinical trial of compound III, 12 weeks of treatment", "format": "in vivo, human", "description": "Regarding reducing the exacerbations of symptoms characterizing relapse, including suicidality, the clinical trial disclosed below was designed to show the efficacy of compound III in improvement of cognitive impairment in patients with schizophrenia as compared to placebo. All patients were on stable antipsychotic treatment (see Table 8 in FIGS. 6A-6C). The study was a multinational, multicentre, randomised, double-blind, placebo-controlled, parallel group trial.\nCompound III (10, 25 and 50 mg) and matching placebo were supplied as film-coated tablets (formulation 1).\nIn total, 516 patients with schizophrenia on stable antipsychotic treatment (Table 8 in FIGS. 6A-6C) as described below were randomized into this trial. […]\nThe primary safety endpoints are as follows: • Occurrence of adverse events (AEs)/serious adverse events (including the abnormalities of physical examination, vital signs, electrocardiogram test and laboratory tests) • Occurrence of protocol-specified adverse events of special interest • Dramatic worsening of disease state as assessed by PANSS • Suicidality as assessed by Columbia Suicidal Severity Rating Scale (C-SSRS) […]"}, "[3]": {"conditions": "patients with schizophrenia receiving antipsychotic therapy"}}, "data": [{"smiles": "O=c1[nH]c(Cc2ccccn2)nc2c1cnn2C1CCOCC1", "note": "[compound III]", "values": [{"measurement": "intrinsic dissolution rate", "setting": "[1]", "value": "low"}, {"measurement": "psychiatric serious adverse events (SAEs): hospitalization for disease worsening (schizophrenia, psychotic disorder) and suicidality leading to hospitalization", "setting": "[2]; any arm dosed with compound III (10, 25, 50, 100 mg qd), 12 weeks, treated set, 8/8 (100%) of these SAEs in placebo arm", "value": "none"}, {"measurement": "change in intensity and occurrence of suicidal ideation compared to placebo", "setting": "[2]; [3]", "value": "decrease"}, {"measurement": "change in psychiatric serious adverse events (hospitalization for serious worsening of schizophrenia symptoms) compared to placebo", "setting": "[2]; [3]", "value": "statistically significant, clinically meaningful decrease"}]}]}
